Assay results taken from patent publication US12390440B2, “Immunomodulating trifluoromethyl-aminal azalides” (Zoetis Services LLC, priority 2020, dated 2025).
Read-outs that look alike come from different tables or passages of the source.

Tests used:
IL-1β = assay: Bovine whole blood assay, IL-1β; type: cell-based; conditions: overstimulation of IL-1β, perceived cellular toxicity concentration;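 note: compound concentration at which rising IL-1β release signals cytotoxicity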
Experimental: (§1) (protected from light) for 30 minutes.

TNF-α = assay: Bovine whole blood assay, LPS-induced TNF-α; type: cell-based; conditions: Bos taurus, fresh whole bovine blood, LPS 1 μg/mL
Experimental: as §1

[1] = test system: BRD pathogens, M. haemolytica and P. multocida; assay: MIC screening panel, BRD pathogens (CLSI broth micro-dilution)

IC50 (TNF-α)	SMILES	IL-1β OS of LPS (IL-1β)	MIC ([1]; read-out: MIC flag (*) at Ex #)	MIC ([1]; read-out: MIC flag (*) at Example #)
18 µM	CC[C@H]1OC(=O)[C@H](C)[C@@H](O[C@H]2C[C@@](C)(OC)[C@](O)(CNCCS(=O)(=O)N(C)C)[C@H](C)O2)[C@H](C)[C@@H](O[C@@H]2O[C@H](C)C[C@H]3[C@H]2OC(C(F)(F)F)N3C)[C@](C)(O)C[C@@H](C)CN[C@H](C)[C@@H](O)[C@]1(C)O (stereo partly drawn) [Example A-13, 2-((((2S,3S,4R,6R)-6-(((2R,3S,4R,5R,8R,10R,11R,12S,13S,14R)-11-(((3aR,4S,6R,7aS)-1,6-dimethyl-2-(trifluoromethyl)hexahydro-2H-pyrano[4,3-d]oxazol-4-yl)oxy)-2-ethyl-3,4,10-trihydroxy-3,5,8,10,12,14-hexamethyl-15-oxo-1-oxa-6-azacyclopentadecan-13-yl)oxy)-3-hydroxy-4-methoxy-2,4-dimethyltetrahydro-2H-pyran-3-yl)methyl)amino)-N,N-dimethylethane-1-sulfonamide]	40 µM		
134 µM	CC[C@H]1OC(=O)[C@H](C)[C@@H](O[C@H]2C[C@@](C)(OC)[C@](O)(CNCCCNS(C)(=O)=O)[C@H](C)O2)[C@H](C)[C@@H](O[C@@H]2O[C@H](C)C[C@H]3[C@H]2OC(C(F)(F)F)N3C)[C@](C)(O)C[C@@H](C)CN[C@H](C)[C@@H](O)[C@]1(C)O (stereo partly drawn) [Example A-23, N-(3-((((2S,3S,4R,6R)-6-(((2R,3S,4R,5R,8R,10R,11R,12S,13S,14R)-11-(((3aR,4S,6R,7aS)-1,6-dimethyl-2-(trifluoromethyl)hexahydro-2H-pyrano[4,3-d]oxazol-4-yl)oxy)-2-ethyl-3,4,10-trihydroxy-3,5,8,10,12,14-hexamethyl-15-oxo-1-oxa-6-azacyclopentadecan-13-yl)oxy)-3-hydroxy-4-methoxy-2,4-dimethyltetrahydro-2H-pyran-3-yl)methyl)amino)propyl)methanesulfonamide]	40 µM	< 64 µg/mL	
141 µM	CC[C@H]1OC(=O)[C@H](C)[C@@H](O[C@H]2C[C@@](C)(OC)[C@](O)(CNCCS(N)(=O)=O)[C@H](C)O2)[C@H](C)[C@@H](O[C@@H]2O[C@H](C)C[C@H]3[C@H]2OC(C(F)(F)F)N3C)[C@](C)(O)C[C@@H](C)CN[C@H](C)[C@@H](O)[C@]1(C)O (stereo partly drawn) [Example A-20, 2-((((2S,3S,4R,6R)-6-(((2R,3S,4R,5R,8R,10R,11R,12S,13S,14R)-11-(((3aR,4S,6R,7aS)-1,6-dimethyl-2-(trifluoromethyl)hexahydro-2H-pyrano[4,3-d]oxazol-4-yl)oxy)-2-ethyl-3,4,10-trihydroxy-3,5,8,10,12,14-hexamethyl-15-oxo-1-oxa-6-azacyclopentadecan-13-yl)oxy)-3-hydroxy-4-methoxy-2,4-dimethyltetrahydro-2H-pyran-3-yl)methyl)amino)ethane-1-sulfonamide]	100 µM		
28 µM	CC[C@H]1OC(=O)[C@H](C)[C@@H](O[C@H]2C[C@@](C)(OC)[C@](O)(CNCCOCCO)[C@H](C)O2)[C@H](C)[C@@H](O[C@@H]2O[C@H](C)C[C@H]3[C@H]2OC(C(F)(F)F)N3C)[C@](C)(O)C[C@@H](C)CN[C@H](C)[C@@H](O)[C@]1(C)O (stereo partly drawn) [Example A-16, (2R,3S,4R,5R,8R,10R,11R,12S,13S,14R)-11-(((3aR,4S,6R,7aS)-1,6-dimethyl-2-(trifluoromethyl)hexahydro-2H-pyrano[4,3-d]oxazol-4-yl)oxy)-2-ethyl-3,4,10-trihydroxy-13-(((2R,4R,5S,6S)-5-hydroxy-5-(((2-(2-hydroxyethoxy)ethyl)amino)methyl)-4-methoxy-4,6-dimethyltetrahydro-2H-pyran-2-yl)oxy)-3,5,8,10,12,14-hexamethyl-1-oxa-6-azacyclopentadecan-15-one]	40 µM		
23 µM	CC[C@H]1OC(=O)[C@H](C)[C@@H](O[C@H]2C[C@@](C)(OC)[C@](O)(CNCCN3CCCCC3=O)[C@H](C)O2)[C@H](C)[C@@H](O[C@@H]2O[C@H](C)C[C@H]3[C@H]2OC(C(F)(F)F)N3C)[C@](C)(O)C[C@@H](C)CN[C@H](C)[C@@H](O)[C@]1(C)O (stereo partly drawn) [Example A-15, (2R,3S,4R,5R,8R,10R,11R,12S,13S,14R)-11-(((3aR,4S,6R,7aS)-1,6-dimethyl-2-(trifluoromethyl)hexahydro-2H-pyrano[4,3-d]oxazol-4-yl)oxy)-2-ethyl-3,4,10-trihydroxy-13-(((2R,4R,5S,6S)-5-hydroxy-4-methoxy-4,6-dimethyl-5-(((2-(2-oxopiperidin-1-yl)ethyl)amino)methyl)tetrahydro-2H-pyran-2-yl)oxy)-3,5,8,10,12,14-hexamethyl-1-oxa-6-azacyclopentadecan-15-one]	40 µM	< 64 µg/mL	
5 µM	CCNC[C@]1(O)[C@H](C)O[C@@H](O[C@H]2[C@H](C)[C@@H](O[C@@H]3O[C@H](C)C[C@H]4[C@H]3OC(C(F)(F)F)N4C)[C@](C)(O)C[C@@H](C)CN[C@H](C)[C@@H](O)[C@](C)(O)[C@@H](CC)OC(=O)[C@@H]2C)C[C@@]1(C)OC (stereo partly drawn) [Example A-5, (2R,3S,4R,5R,8R,10R,11R,12S,13S,14R)-11-(((3aR,4S,6R,7aS)-1,6-dimethyl-2-(trifluoromethyl)hexahydro-2H-pyrano[4,3-d]oxazol-4-yl)oxy)-2-ethyl-13-(((2R,4R,5S,6S)-5-((ethylamino)methyl)-5-hydroxy-4-methoxy-4,6-dimethyltetrahydro-2H-pyran-2-yl)oxy)-3,4,10-trihydroxy-3,5,8,10,12,14-hexamethyl-1-oxa-6-azacyclopentadecan-15-one]	5 µM		

Second part, the compound before the results:

SMILES	IC50 (TNF-α)	IL-1β OS of LPS (IL-1β)	MIC ([1]; read-out: MIC flag (*) at Ex #)	MIC ([1]; read-out: MIC flag (*) at Example #)
CC[C@H]1OC(=O)[C@H](C)[C@@H](O[C@H]2C[C@@](C)(OC)[C@](O)(CNCC3CCN(C(C)=O)CC3)[C@H](C)O2)[C@H](C)[C@@H](O[C@@H]2O[C@H](C)C[C@H]3[C@H]2OC(C(F)(F)F)N3C)[C@](C)(O)C[C@@H](C)CN[C@H](C)[C@@H](O)[C@]1(C)O (stereo partly drawn) [Example A-18, (2R,3S,4R,5R,8R,10R,11R,12S,13S,14R)-13-(((2R,4R,5S,6S)-5-((((1-acetylpiperidin-4-yl)methyl)amino)methyl)-5-hydroxy-4-methoxy-4,6-dimethyltetrahydro-2H-pyran-2-yl)oxy)-11-(((3aR,4S,6R,7aS)-1,6-dimethyl-2-(trifluoromethyl)hexahydro-2H-pyrano[4,3-d]oxazol-4-yl)oxy)-2-ethyl-3,4,10-trihydroxy-3,5,8,10,12,14-hexamethyl-1-oxa-6-azacyclopentadecan-15-one]			< 64 µg/mL	
CC[C@H]1OC(=O)[C@H](C)[C@@H](O[C@H]2C[C@@](C)(OC)[C@](O)(CNCCn3ccccc3=O)[C@H](C)O2)[C@H](C)[C@@H](O[C@@H]2O[C@H](C)C[C@H]3[C@H]2OC(C(F)(F)F)N3C)[C@](C)(O)C[C@@H](C)CN[C@H](C)[C@@H](O)[C@]1(C)O (stereo partly drawn) [Example A-19, (2R,3S,4R,5R,8R,10R,11R,12S,13S,14R)-11-(((3aR,4S,6R,7aS)-1,6-dimethyl-2-(trifluoromethyl)hexahydro-2H-pyrano[4,3-d]oxazol-4-yl)oxy)-2-ethyl-3,4,10-trihydroxy-13-(((2R,4R,5S,6S)-5-hydroxy-4-methoxy-4,6-dimethyl-5-(((2-(2-oxopyridin-1(2H)-yl)ethyl)amino)methyl)tetrahydro-2H-pyran-2-yl)oxy)-3,5,8,10,12,14-hexamethyl-1-oxa-6-azacyclopentadecan-15-one]			< 64 µg/mL	
CC[C@H]1OC(=O)[C@H](C)[C@@H](O[C@H]2C[C@@](C)(OC)[C@@H](O)[C@H](C)O2)[C@H](C)[C@@H](O[C@@H]2O[C@H](C)C[C@H]3[C@H]2OC(C(F)(F)F)N3C)[C@](C)(O)C[C@@H](C)CN(C)[C@H](C)[C@@H](O)[C@]1(C)O (stereo partly drawn) [Example C-1, (2R,3S,4R,5R,8R,10R,11R,12S,13S,14R)-11-(((3aR,4S,6R,7aS)-1,6-dimethyl-2-(trifluoromethyl)hexahydro-2H-pyrano[4,3-d]oxazol-4-yl)oxy)-2-ethyl-3,4,10-trihydroxy-13-(((2R,4R,5S,6S)-5-hydroxy-4-methoxy-4,6-dimethyltetrahydro-2H-pyran-2-yl)oxy)-3,5,6,8,10,12,14-heptamethyl-1-oxa-6-azacyclopentadecan-15-one]				< 64 µg/mL
CCCNC[C@]1(O)[C@H](C)O[C@@H](O[C@H]2[C@H](C)[C@@H](O[C@@H]3O[C@H](C)C[C@H]4[C@H]3OC(C(F)(F)F)N4C)[C@](C)(O)C[C@@H](C)CN(C)[C@H](C)[C@@H](O)[C@](C)(O)[C@@H](CC)OC(=O)[C@@H]2C)C[C@@]1(C)OC (stereo partly drawn) [Example A-26, (2R,3S,4R,5R,8R,10R,11R,12S,13S,14R)-11-(((3aR,4S,6R,7aS)-1,6-dimethyl-2-(trifluoromethyl)hexahydro-2H-pyrano[4,3-d]oxazol-4-yl)oxy)-2-ethyl-3,4,10-trihydroxy-13-(((2R,4R,5S,6S)-5-hydroxy-4-methoxy-4,6-dimethyl-5-((propylamino)methyl)tetrahydro-2H-pyran-2-yl)oxy)-3,5,6,8,10,12,14-heptamethyl-1-oxa-6-azacyclopentadecan-15-one]			< 64 µg/mL	
CC[C@H]1OC(=O)[C@H](C)[C@@H](O[C@H]2C[C@@](C)(OC)[C@](O)(CNCCC(=O)N(C)C)[C@H](C)O2)[C@H](C)[C@@H](O[C@@H]2O[C@H](C)C[C@H]3[C@H]2OC(C(F)(F)F)N3C)[C@](C)(O)C[C@@H](C)CN[C@H](C)[C@@H](O)[C@]1(C)O (stereo partly drawn) [Example A-17, 3-((((2S,3S,4R,6R)-6-(((2R,3S,4R,5R,8R,10R,11R,12S,13S,14R)-11-(((3aR,4S,6R,7aS)-1,6-dimethyl-2-(trifluoromethyl)hexahydro-2H-pyrano[4,3-d]oxazol-4-yl)oxy)-2-ethyl-3,4,10-trihydroxy-3,5,8,10,12,14-hexamethyl-15-oxo-1-oxa-6-azacyclopentadecan-13-yl)oxy)-3-hydroxy-4-methoxy-2,4-dimethyltetrahydro-2H-pyran-3-yl)methyl)amino)-N,N-dimethylpropanamide]			< 64 µg/mL	
